From US20240109917A1 (ACTELION PHARMACEUTICALS LTD, priority 2020, published 2024)
Where two headings read alike, the source gives them in different places.

Experiments:
PDGFRβ = PDGFRβ (Rattus norvegicus (Rat), UniProt Q05030); assay: PDGFRβ Cellular Assay (PDGFRb P-Y751 HTRF in A10 cells stimulated with PDGF-BB); assay type: cell-based
How it was run: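 Phospho-Y751 PDGFRβ was measured by HTRF in lysates of A10 rat cells. Cells received compound for 3 hours before PDGF-BB stimulation (100 ng/mL working stock).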

[1] = target: Tb-labeled inactive PDGFRβ (Homo sapiens (Human), UniProt P09619); assay: PDGFRβ LanthaScreen Assay; assay type: binding; conditions: read-out: PDGFR Lantha IC50
Chain of Tb-labeled inactive PDGFRβ (P09619 33-1106): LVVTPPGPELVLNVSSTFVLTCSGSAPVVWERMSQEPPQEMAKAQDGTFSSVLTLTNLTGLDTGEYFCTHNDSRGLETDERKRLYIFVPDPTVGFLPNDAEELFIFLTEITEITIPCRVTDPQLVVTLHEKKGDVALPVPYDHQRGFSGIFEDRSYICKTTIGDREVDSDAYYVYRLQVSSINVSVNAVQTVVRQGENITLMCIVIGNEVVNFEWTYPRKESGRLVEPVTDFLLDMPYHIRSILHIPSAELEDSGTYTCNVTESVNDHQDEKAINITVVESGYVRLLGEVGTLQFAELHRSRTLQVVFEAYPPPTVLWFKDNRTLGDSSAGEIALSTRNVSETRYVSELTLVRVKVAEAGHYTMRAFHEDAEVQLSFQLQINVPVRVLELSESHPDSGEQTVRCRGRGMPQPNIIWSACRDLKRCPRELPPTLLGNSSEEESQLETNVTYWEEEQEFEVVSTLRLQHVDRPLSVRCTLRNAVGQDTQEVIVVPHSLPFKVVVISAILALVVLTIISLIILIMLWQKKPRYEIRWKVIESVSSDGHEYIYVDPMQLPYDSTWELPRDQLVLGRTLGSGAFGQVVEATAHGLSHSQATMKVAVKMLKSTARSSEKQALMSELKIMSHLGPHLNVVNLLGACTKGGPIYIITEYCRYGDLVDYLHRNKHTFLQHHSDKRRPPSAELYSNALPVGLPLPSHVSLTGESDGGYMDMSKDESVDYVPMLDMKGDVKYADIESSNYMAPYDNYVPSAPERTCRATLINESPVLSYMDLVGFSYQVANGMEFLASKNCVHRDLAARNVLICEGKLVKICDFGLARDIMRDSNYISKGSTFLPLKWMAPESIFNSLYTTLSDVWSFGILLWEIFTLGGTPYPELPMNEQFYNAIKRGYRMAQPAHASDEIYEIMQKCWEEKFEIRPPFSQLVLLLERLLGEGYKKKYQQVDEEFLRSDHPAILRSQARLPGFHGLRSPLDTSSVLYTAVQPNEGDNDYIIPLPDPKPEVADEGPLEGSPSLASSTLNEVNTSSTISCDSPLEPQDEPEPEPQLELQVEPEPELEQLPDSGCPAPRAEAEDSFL

VEGFR2, unphosphorylated = VEGFR2, unphosphorylated (Homo sapiens (Human), UniProt P35968); assay: VEGFR ADP GLO Assay; assay type: biochemical
Chain of VEGFR2, unphosphorylated (P35968 20-1356): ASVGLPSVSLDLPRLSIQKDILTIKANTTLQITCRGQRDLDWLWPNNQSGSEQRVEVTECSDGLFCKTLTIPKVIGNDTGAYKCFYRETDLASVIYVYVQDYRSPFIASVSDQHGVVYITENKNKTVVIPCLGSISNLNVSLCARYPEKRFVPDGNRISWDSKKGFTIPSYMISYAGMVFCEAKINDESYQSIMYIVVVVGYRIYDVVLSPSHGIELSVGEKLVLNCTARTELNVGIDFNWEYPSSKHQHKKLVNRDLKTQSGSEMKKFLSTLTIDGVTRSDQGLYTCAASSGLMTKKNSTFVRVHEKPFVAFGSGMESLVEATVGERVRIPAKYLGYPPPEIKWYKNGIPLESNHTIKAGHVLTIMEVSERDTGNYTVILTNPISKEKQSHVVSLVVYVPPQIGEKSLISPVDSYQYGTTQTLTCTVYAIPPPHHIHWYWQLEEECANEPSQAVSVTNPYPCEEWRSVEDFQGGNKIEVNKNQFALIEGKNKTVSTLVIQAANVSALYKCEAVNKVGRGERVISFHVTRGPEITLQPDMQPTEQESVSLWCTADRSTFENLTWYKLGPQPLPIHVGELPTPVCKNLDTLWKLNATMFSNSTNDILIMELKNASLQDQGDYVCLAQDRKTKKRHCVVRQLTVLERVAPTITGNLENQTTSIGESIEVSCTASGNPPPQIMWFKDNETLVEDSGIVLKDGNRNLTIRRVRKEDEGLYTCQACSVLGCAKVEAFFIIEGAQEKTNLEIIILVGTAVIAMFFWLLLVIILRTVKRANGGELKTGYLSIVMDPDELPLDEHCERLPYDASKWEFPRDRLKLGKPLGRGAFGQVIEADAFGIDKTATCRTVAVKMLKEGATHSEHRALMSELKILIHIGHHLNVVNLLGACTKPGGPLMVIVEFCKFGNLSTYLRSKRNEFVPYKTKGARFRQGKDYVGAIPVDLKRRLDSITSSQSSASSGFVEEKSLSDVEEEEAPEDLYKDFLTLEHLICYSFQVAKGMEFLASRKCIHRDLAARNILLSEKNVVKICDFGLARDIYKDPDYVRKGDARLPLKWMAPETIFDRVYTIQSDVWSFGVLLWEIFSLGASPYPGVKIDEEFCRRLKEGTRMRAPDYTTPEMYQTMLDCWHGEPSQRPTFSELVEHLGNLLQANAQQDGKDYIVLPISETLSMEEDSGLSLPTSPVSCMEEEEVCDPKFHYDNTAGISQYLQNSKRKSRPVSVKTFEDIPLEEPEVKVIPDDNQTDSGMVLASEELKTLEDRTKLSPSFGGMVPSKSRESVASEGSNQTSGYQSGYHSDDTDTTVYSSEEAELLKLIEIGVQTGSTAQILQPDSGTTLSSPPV

Chain of PDGFRβ (Q05030 32-1097): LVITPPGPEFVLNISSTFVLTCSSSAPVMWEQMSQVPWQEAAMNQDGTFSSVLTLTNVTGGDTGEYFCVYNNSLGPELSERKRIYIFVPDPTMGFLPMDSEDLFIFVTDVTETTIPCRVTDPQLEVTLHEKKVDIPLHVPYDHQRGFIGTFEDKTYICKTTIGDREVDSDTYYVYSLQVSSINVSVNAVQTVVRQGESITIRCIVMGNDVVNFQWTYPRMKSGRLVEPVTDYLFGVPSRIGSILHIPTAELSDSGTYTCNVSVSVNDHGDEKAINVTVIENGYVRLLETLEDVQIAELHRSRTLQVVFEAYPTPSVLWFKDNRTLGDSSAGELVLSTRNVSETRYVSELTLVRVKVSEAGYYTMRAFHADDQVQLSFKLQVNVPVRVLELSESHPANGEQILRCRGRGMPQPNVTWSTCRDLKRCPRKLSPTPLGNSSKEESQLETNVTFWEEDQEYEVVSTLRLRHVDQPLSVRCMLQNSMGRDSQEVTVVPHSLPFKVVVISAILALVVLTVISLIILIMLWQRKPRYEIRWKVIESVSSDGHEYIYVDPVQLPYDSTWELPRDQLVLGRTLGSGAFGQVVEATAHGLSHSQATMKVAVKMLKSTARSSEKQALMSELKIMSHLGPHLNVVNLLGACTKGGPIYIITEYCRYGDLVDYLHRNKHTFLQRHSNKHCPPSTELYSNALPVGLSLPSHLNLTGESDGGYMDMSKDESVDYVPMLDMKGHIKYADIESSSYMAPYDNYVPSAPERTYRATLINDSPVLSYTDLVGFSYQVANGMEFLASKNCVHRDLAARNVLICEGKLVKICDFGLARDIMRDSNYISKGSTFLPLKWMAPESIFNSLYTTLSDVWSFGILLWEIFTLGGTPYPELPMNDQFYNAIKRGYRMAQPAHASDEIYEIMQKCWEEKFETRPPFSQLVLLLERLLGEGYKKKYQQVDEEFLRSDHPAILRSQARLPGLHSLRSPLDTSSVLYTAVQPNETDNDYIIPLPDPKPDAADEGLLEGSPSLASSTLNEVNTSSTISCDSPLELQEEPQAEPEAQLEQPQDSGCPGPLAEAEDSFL

Row | Structure (SMILES) | IC50 (PDGFRβ; read-out: PDGFR Cellular IC50) | IC50 [1] | IC50 (VEGFR2, unphosphorylated) | IC50 (PDGFRβ; PDGFR Cellular IC50)
1 | Cc1ncc(NC(=O)CN2CCCC23CC3)cc1NC(=O)c1cnn2cc(-c3cnn(C)c3)sc12 [Example 16, N-(5-(2-(4-azaspiro[2.4]heptan-4-yl)acetamido)-2-methylpyridin-3-yl)-2-(1-methyl-1H-pyrazol-4-yl)pyrazolo[5,1-b]thiazole-7-carboxamide] | 4.1 nM | 5.1 nM | > 7500 nM | 
2 | COc1ncccc1-c1cn2ncc(C(=O)Nc3cc(NC(=O)CN4CCCC4(C)C)cnc3C)c2s1 [Example 233, N-(5-(2-(2,2-dimethylpyrrolidin-1-yl)acetamido)-2-methylpyridin-3-yl)-2-(2-methoxypyridin-3-yl)pyrazolo[5,1-b]thiazole-7-carboxamide] | 1.3 nM | 1.1 nM | > 7500 nM | 
3 | Cc1ncc(C(=O)NC[C@H]2CCCN2CCO)cc1NC(=O)c1cnn2cc(-c3cnn(C)c3)sc12 [Example 236, (R)—N-(5-(((1-(2-hydroxyethyl)pyrrolidin-2-yl)methyl)carbamoyl)-2-methylpyridin-3-yl)-2-(1-methyl-1H-pyrazol-4-yl)pyrazolo[5,1-b]thiazole-7-carboxamide] | 677 nM | 83.6 nM | > 2500 nM | 
4 | Cc1cc(C(=O)NCCN2CCC(C)(C)CC2)sc1NC(=O)c1cnn2cc(-c3cnn(C)c3)sc12 [Example 183, N-(5-((2-(4,4-dimethylpiperidin-1-yl)ethyl)carbamoyl)-3-methylthiophen-2-yl)-2-(1-methyl-1H-pyrazol-4-yl)pyrazolo[5,1-b]thiazole-7-carboxamide] | 178 nM | 652 nM | > 7500 nM | 
5 | COCCn1cc(-c2cn3ncc(C(=O)Nc4cc(NC(=O)CCCN5CCC[C@@H]5C)cnc4C)c3s2)cn1 [Example 216, (S)-2-(1-(2-methoxyethyl)-1H-pyrazol-4-yl)-N-(2-methyl-5-(4-(2-methylpyrrolidin-1-yl)butanamido)pyridin-3-yl)pyrazolo[5,1-b]thiazole-7-carboxamide] |  | 47.8 nM | > 7500 nM | 626 nM
6 | Cc1ncc(NC(=O)OC[C@@H]2CCCN2C)cc1NC(=O)c1cnn2cc(-c3cnn(C)c3)sc12 [Example 243, (S)-(1-methylpyrrolidin-2-yl)methyl (6-methyl-5-(2-(1-methyl-1H-pyrazol-4-yl)pyrazolo[5,1-b]thiazole-7-carboxamido)pyridin-3-yl)carbamate] |  | 13.1 nM | > 7500 nM | 20.3 nM
7 | Cc1ncc(C(=O)NCCN2CCCC2(C)C)cc1NC(=O)c1cnn2cc(-c3cn(C)nc3CO)sc12 [Example 224, N-(5-((2-(2,2-dimethylpyrrolidin-1-yl)ethyl)carbamoyl)-2-methylpyridin-3-yl)-2-(3-(hydroxymethyl)-1-methyl-1H-pyrazol-4-yl)pyrazolo[5,1-b]thiazole-7-carboxamide] | 903 nM | 11.2 nM | > 2500 nM | 
8 | Cc1cc(C(=O)NCCN(C)C2CCCC2)sc1NC(=O)c1cnn2cc(-c3cnn(C)c3)sc12 [Example 190, N-(5-((2-(cyclopentyl(methyl)amino)ethyl)carbamoyl)-3-methylthiophen-2-yl)-2-(1-methyl-1H-pyrazol-4-yl)pyrazolo[5,1-b]thiazole-7-carboxamide] |  | 398 nM | > 7500 nM | 147 nM
9 | COc1ncccc1-c1cn2ncc(C(=O)Nc3cc(C(=O)NCCN4CCC[C@H]4C)cnc3C)c2s1 [Example 242, (R)-2-(2-methoxypyridin-3-yl)-N-(2-methyl-5-((2-(2-methylpyrrolidin-1-yl)ethyl)carbamoyl)pyridin-3-yl)pyrazolo[5,1-b]thiazole-7-carboxamide] | 6.1 nM | 1.7 nM | > 7500 nM | 
10 | Cc1ncc(C(=O)NCCN2CCCC2(C)C)cc1NC(=O)c1cnn2cc(-n3ncc4cccnc43)sc12 [Example 217, N-(5-((2-(2,2-dimethylpyrrolidin-1-yl)ethyl)carbamoyl)-2-methylpyridin-3-yl)-2-(1H-pyrazolo[3,4-b]pyridin-1-yl)pyrazolo[5,1-b]thiazole-7-carboxamide] | 8.9 nM | 2.5 nM | > 7500 nM | 
11 | COc1ncccc1-c1cn2ncc(C(=O)Nc3cc(NC(=O)OC[C@@H]4CCCN4C)cnc3C)c2s1 [Example 253, (S)-(1-methylpyrrolidin-2-yl)methyl (5-(2-(2-methoxypyridin-3-yl)pyrazolo[5,1-b]thiazole-7-carboxamido)-6-methylpyridin-3-yl)carbamate] | 4.4 nM | 1.8 nM | > 7500 nM | 
12 | Cc1ncc(C(=O)NCCNCCO)cc1NC(=O)c1cnn2cc(-c3cnn(C)c3)sc12 [Example 234, N-(5-((2-((2-hydroxyethyl)amino)ethyl)carbamoyl)-2-methylpyridin-3-yl)-2-(1-methyl-1H-pyrazol-4-yl)pyrazolo[5,1-b]thiazole-7-carboxamide] | > 3000 nM | 283 nM | > 7500 nM | 
13 | CCc1cc(C(=O)NCCN2CCCC23CCC3)sc1NC(=O)c1cnn2cc(-c3cnn(C)c3)sc12 [Example 205, N-(5-((2-(5-azaspiro[3.4]octan-5-yl)ethyl)carbamoyl)-3-ethylthiophen-2-yl)-2-(1-methyl-1H-pyrazol-4-yl)pyrazolo[5,1-b]thiazole-7-carboxamide] | 562 nM | 107 nM | > 7500 nM | 
14 | Cc1ncc(C(=O)NCCN2CCCC2)cc1NC(=O)c1cnn2cc(-c3cnn(CCC(O)CO)c3)sc12 (stereo not drawn) [Example 222, 2-(1-(3,4-Dihydroxybutyl)-1H-pyrazol-4-yl)-N-(2-methyl-5-((2-(pyrrolidin-1-yl)ethyl)carbamoyl)pyridin-3-yl)pyrazolo[5,1-b]thiazole-7-carboxamide] | 989 nM | 16.5 nM | > 7500 nM | 
15 | Cc1cc(C(=O)NCCN2CCOCC23CC3)sc1NC(=O)c1cnn2cc(-c3cnn(C)c3)sc12 [Example 197, N-(5-((2-(7-oxa-4-azaspiro[2.5]octan-4-yl)ethyl)carbamoyl)-3-methylthiophen-2-yl)-2-(1-methyl-1H-pyrazol-4-yl)pyrazolo[5,1-b]thiazole-7-carboxamide] | 613 nM | 51 nM | > 7500 nM | 
16 | Cc1ncc(NC(=O)CCN2CCCC2(C)C)cc1NC(=O)c1cnn2cc(-c3cccc4c3cnn4C)sc12 [Example 241, N-(5-(3-(2,2-dimethylpyrrolidin-1-yl)propanamido)-2-methylpyridin-3-yl)-2-(1-methyl-1H-indazol-4-yl)pyrazolo[5,1-b]thiazole-7-carboxamide] | 2.7 nM | 0.7 nM | > 2500 nM | 
17 | Cc1ncc(C(=O)NCCN2CCCC23CCC3)cc1NC(=O)c1cnn2cc(-c3cnn(C)c3C)sc12 [Example 209, N-(5-((2-(5-azaspiro[3.4]octan-5-yl)ethyl)carbamoyl)-2-methyl-pyridin-3-yl)-2-(1,5-dimethyl-1H-pyrazol-4-yl)pyrazolo[5,1-b]thiazole-7-carboxamide] | 2.8 nM | 2.2 nM | > 7500 nM | 
18 | COc1ncccc1-c1cn2ncc(C(=O)Nc3cc(C(=O)NCCN4CCCC4C)cnc3C)c2s1 (stereo not drawn) [Example 228, 2-(2-Methoxypyridin-3-yl)-N-(2-methyl-5-((2-(2-methylpyrrolidin-1-yl)ethyl)carbamoyl)pyridin-3-yl)pyrazolo[5,1-b]thiazole-7-carboxamide] | 5.6 nM | 1.5 nM | > 833 nM | 
19 | Cc1ncc(C(=O)NCCN2CCCC2(C)C)cc1NC(=O)c1cnn2cc(-c3cncc(S(C)(=O)=O)c3)sc12 [Example 230, N-(5-((2-(2,2-dimethylpyrrolidin-1-yl)ethyl)carbamoyl)-2-methylpyridin-3-yl)-2-(5-(methylsulfonyl)pyridin-3-yl)pyrazolo[5,1-b]thiazole-7-carboxamide] | 791 nM | 82.9 nM | > 2500 nM | 
20 | Cc1ncc(NC(=O)OCCN2CCCC2)cc1NC(=O)c1cnn2cc(-c3cnn(C)c3)sc12 [Example 246, 2-(pyrrolidin-1-yl)ethyl (6-methyl-5-(2-(1-methyl-1H-pyrazol-4-yl)pyrazolo[5,1-b]thiazole-7-carboxamido)pyridin-3-yl)carbamate] | 113 nM | 64.7 nM | > 7500 nM | 
21 | Cn1cc(-c2cn3ncc(C(=O)Nc4cc(C(=O)NCCN5CCCC5(C)C)ccc4F)c3s2)cn1 [Example 207, N-(5-((2-(2,2-dimethylpyrrolidin-1-yl)ethyl)carbamoyl)-2-fluorophenyl)-2-(1-methyl-1H-pyrazol-4-yl)pyrazolo[5,1-b]thiazole-7-carboxamide] | 3.3 nM | 4.4 nM | > 7500 nM | 
22 | Cc1ncc(NC(=O)OC2CN(C(C)(C)C)C2)cc1NC(=O)c1cnn2cc(-c3cnn(C)c3)sc12 [Example 252, 1-(tert-butyl)azetidin-3-yl (6-methyl-5-(2-(1-methyl-1H-pyrazol-4-yl)pyrazolo[5,1-b]thiazole-7-carboxamido)pyridin-3-yl)carbamate] | 79.7 nM | 53.2 nM | > 7500 nM | 
23 | Cc1ncc(C(=O)NCCN(CCO)CC2CCCCC2)cc1NC(=O)c1cnn2cc(-c3cnn(C)c3)sc12 [Example 235, N-(5-((2-((cyclohexylmethyl)(2-hydroxyethyl)amino)ethyl)carbamoyl)-2-methylpyridin-3-yl)-2-(1-methyl-1H-pyrazol-4-yl)pyrazolo[5,1-b]thiazole-7-carboxamide] | 9.5 nM | 5.2 nM | > 7500 nM | 
24 | Cc1ncc(C(=O)NCCN2CCCC2)cc1NC(=O)c1cnn2cc(-c3cnn(C)c3)sc12 [Example 219, 2-(1-Methyl-1H-pyrazol-4-yl)-N-(2-methyl-5-((2-(pyrrolidin-1-yl)ethyl)carbamoyl)pyridin-3-yl)pyrazolo[5,1-b]thiazole-7-carboxamide] | 123 nM | 14 nM | > 7500 nM | 
